Experimental data published in patent US7385026B1, “Modified ghrelin polypeptides” (priority 1999, dated 2008).
Where “and” joins values, the source holds several entries; their conditions need not be identical. Equal entries are not always repeated. Where two headings read alike, the source gives them in different places. One block for each compound: values may come before it. Square brackets hold non-standard residues; d marks the D form. Peptide text beside a SMILES is read from it. * marks the point of attachment. d2Nal = N[C@H](Cc1ccc2ccccc2c1)C(=O)O; Aib = CC(C)(N)C(=O)O; Octyl = CCCCCCCC*

What was measured:
rat GHS-receptor (GHR-R) = biological target: T1, rat GHS-receptor (GHR-R) (Rattus norvegicus, UniProt O08725); test: Ca-releasing activity (increase in intracellular calcium) in CHO-GHSR62 cells, FLIPR; format: cell-based
T1 construct: A full-length cDNA for rat GHR-R was obtained by RT-PCR; expressed in transfected cells
Procedure, shortened: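 CHO cells stably expressing full-length rat GHS-R (CHO-GHSR62) were cultured 12–15 h, loaded with 4 μM Fluo4 for 1 h and washed with Hank's BSS containing 20 mM Hepes and 2.5 mM probenecid. Ca-releasing activity of ghrelin peptides, fragments or derivatives was read by FLIPR as the fluorescence change after sample addition.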

[1] = tested on: amino-terminal antibody (anti-[C-Cys]-rat ghrelin [1-11] antigen); test: Radioimmunoassay: inhibition of binding of labeled rat ghrelin to amino-terminal antibody; design: species or system rabbit
IGS-SD strain rats = test: GH-releasing activity of long-chain ghrelin derivatives in rat (plasma GH 15 min after i.v.); format: in vivo; settings: for GH level in plasma in 15 min. after administration, M ± S.D.: n=3; for GH level in plasma in 15 min. after administration, individual rats (Rat 1-3): rats under Nembutal; for GH-releasing activity (in words): i.v., plasma GH at 15 minutes
Experimental: Fifteen minutes after administration, plasma was collected, and the concentration of GH in plasma was measured by radioimmunoassay (Biotrak/Amersham). Separately, 0.2% bovine serum albumin (BSA)-physiological saline, 6 nmol/kg rGhrelin and hGhrelin, or 80 nmol/kg Ipamorelin (Compound 80) was administered into other rats as the control, respectively, and the concentrations of GH in plasma in 15 minutes after administration were compared (for each sample, n=3).

[2] = CHO-GHSR62 cells (CHO cells expressing rat GHS receptor), FLIPR, read-out: Ca-releasing activity EC50

T1 sequence (O08725 whole entry): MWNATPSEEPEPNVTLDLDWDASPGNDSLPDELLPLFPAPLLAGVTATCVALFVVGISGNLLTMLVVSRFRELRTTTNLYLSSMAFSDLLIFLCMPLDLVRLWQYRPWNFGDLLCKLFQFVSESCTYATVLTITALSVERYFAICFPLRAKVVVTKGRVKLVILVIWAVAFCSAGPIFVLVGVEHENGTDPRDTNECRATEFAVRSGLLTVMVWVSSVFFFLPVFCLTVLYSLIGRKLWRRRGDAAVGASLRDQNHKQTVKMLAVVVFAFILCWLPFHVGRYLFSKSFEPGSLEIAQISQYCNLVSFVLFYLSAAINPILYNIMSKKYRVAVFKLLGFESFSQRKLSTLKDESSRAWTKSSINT

EC50 (rat GHS-receptor (GHR-R); [2]): 34 nM
Compound: CCCCCCCCOC[C@H](NC(=O)[C@H](Cc1c[nH]cn1)NC(=O)C(C)(C)N)C(=O)N[C@@H](Cc1ccccc1)C(=O)N[C@@H](CCCCN)C(N)=O [Compound 78, [Aib^1, His^2, Ser^3(Octyl), Lys^5]-Ghrelin (1-5)-amide] (H-[Aib]HS(Octyl)FK-NH2)

EC50 (rat GHS-receptor (GHR-R); [2]): 38 nM
Compound: CCCCCCCCOC[C@@H](NC(=O)[C@H](Cc1c[nH]cn1)NC(=O)C(C)(C)N)C(=O)N[C@H](Cc1ccccc1)C(=O)N[C@@H](CCCCN)C(N)=O [Compound 79, [Aib^1, His^2, ^DSer^3(Octyl), ^DPhe^4, Lys^5]-Ghrelin (1-5)-amide] (H-[Aib]H[dS](Octyl)[dF]K-NH2)

EC50 (rat GHS-receptor (GHR-R); [2]): 2.5 nM
Compound: CC(C)(N)C(=O)N[C@@H](Cc1c[nH]cn1)C(=O)N[C@H](Cc1ccc2ccccc2c1)C(=O)N[C@H](Cc1ccccc1)C(=O)N[C@@H](CCCCN)C(N)=O [Compound 80, [Aib^1, His^2, ^DNal^3, ^DPhe^4, Lys^5]-Ghrelin (1-5)-amide, reference compound] (H-[Aib]H[d2Nal][dF]K-NH2)
GH level in plasma in 15 min. after administration, M ± S.D. (IGS-SD strain rats; dose 80 nmol/kg i.v.): 607 ± 503 ng/mL | GH level in plasma in 15 min. after administration, individual rats (Rat 1-3) (IGS-SD strain rats; dose 80 nmol/kg i.v., listed as Ipamorelin): 377 ng/mL and 260 ng/mL and 1184 ng/mL

EC50 (rat GHS-receptor (GHR-R); [2]): 11 nM
Compound: CCCCCCCCOC[C@H](NC(=O)CCCCN)C(=O)N[C@@H](Cc1ccccc1)C(=O)N[C@@H](CC(C)C)C(N)=O [Compound 81, [N-Aminopentanoyl, Ser^3(Octyl)]-Ghrelin (3-5)-amide]

EC50 (rat GHS-receptor (GHR-R); [2]): 12 nM
Compound: CCCCCCCCOC[C@H](NC(=O)CCCCN)C(=O)N[C@@H](Cc1ccccc1)C(=O)N[C@@H](CC(C)C)C(=O)NC [Compound 82, [N-Aminopentanoyl, Ser^3(Octyl)]-Ghrelin (3-5)-methylamide]

EC50 (rat GHS-receptor (GHR-R); [2]): 22 nM
Compound: CCCCCCCCOC[C@H](NC(=O)CCCCN)C(=O)N[C@@H](Cc1ccccc1)C(=O)N[C@@H](CC(C)C)C(=O)NCC [Compound 83, [N-Aminopentanoyl, Ser^3(Octyl)]-Ghrelin (3-5)-ethylamide]

EC50 (rat GHS-receptor (GHR-R); [2]): 98 nM
Compound: CCCCCCCCOC[C@H](NC(=O)CCCCN)C(=O)N[C@@H](Cc1ccccc1)C(=O)N[C@@H](CC(C)C)C(=O)NCc1ccccc1 [Compound 84, [N-Aminopentanoyl, Ser^3(Octyl)]-Ghrelin (3-5)-benzylamide]

EC50 (rat GHS-receptor (GHR-R); [2]): 3.5 nM
Compound: CCCCCCCCOC[C@H](NC(=O)CCCCN)C(=O)N[C@@H](Cc1ccccc1)C(=O)N[C@@H](CC(C)C)C(=O)NCCN [Compound 85, [N-Aminopentanoyl, Ser^3(Octyl)]-Ghrelin (3-5), aminoethylamide]

The remaining lines, values behind:

Compound: CCCCCC(=O)OC[C@H](NC(=O)[C@H](CO)NC(=O)CN)C(=O)N[C@@H](Cc1ccccc1)C(=O)N[C@@H](CC(C)C)C(=O)N[C@@H](CO)C(=O)N1CCC[C@H]1C(=O)N[C@@H](CCC(=O)O)C(=O)N[C@@H](Cc1c[nH]cn1)C(=O)N[C@@H](CCC(N)=O)C(=O)N[C@@H](CCCCN)C(=O)N[C@@H](C)C(=O)N[C@@H](CCC(N)=O)C(=O)N[C@@H](CCC(N)=O)C(=O)N[C@@H](CCCNC(=N)N)C(=O)N[C@@H](CCCCN)C(=O)N[C@@H](CCC(=O)O)C(=O)N[C@@H](CO)C(=O)N[C@@H](CCCCN)C(=O)N[C@@H](CCCCN)C(=O)N1CCC[C@H]1C(=O)N1CCC[C@H]1C(=O)N[C@@H](C)C(=O)N[C@@H](CCCCN)C(=O)N[C@@H](CC(C)C)C(=O)N[C@@H](CCC(N)=O)C(=O)N1CCC[C@H]1C(=O)N[C@@H](CCCNC(=N)N)C(=O)O [Compound 11, [Ser^3(Hexanoyl)]-rGhrelin]
EC50 (rat GHS-receptor (GHR-R); [2]): 16 nM | cross-reactivity with the amino-terminal antibody [1]: 0.3%

Compound: CCCCCCCCCC(=O)OC[C@H](NC(=O)[C@H](CO)NC(=O)CN)C(=O)N[C@@H](Cc1ccccc1)C(=O)N[C@@H](CC(C)C)C(=O)N[C@@H](CO)C(=O)N1CCC[C@H]1C(=O)N[C@@H](CCC(=O)O)C(=O)N[C@@H](Cc1c[nH]cn1)C(=O)N[C@@H](CCC(N)=O)C(=O)N[C@@H](CCCCN)C(=O)N[C@@H](C)C(=O)N[C@@H](CCC(N)=O)C(=O)N[C@@H](CCC(N)=O)C(=O)N[C@@H](CCCNC(=N)N)C(=O)N[C@@H](CCCCN)C(=O)N[C@@H](CCC(=O)O)C(=O)N[C@@H](CO)C(=O)N[C@@H](CCCCN)C(=O)N[C@@H](CCCCN)C(=O)N1CCC[C@H]1C(=O)N1CCC[C@H]1C(=O)N[C@@H](C)C(=O)N[C@@H](CCCCN)C(=O)N[C@@H](CC(C)C)C(=O)N[C@@H](CCC(N)=O)C(=O)N1CCC[C@H]1C(=O)N[C@@H](CCCNC(=N)N)C(=O)O [Compound 12, [Ser^3(Decanoyl)]-rGhrelin]
EC50 (rat GHS-receptor (GHR-R); [2]): 1.7 nM | EC50 (rat GHS-receptor (GHR-R); Table 3, Example 9: protease fragments or synthetic peptides, CHO-GHSR62 cells, read-out: Ca-releasing activity (EC50)): 2.6 nM | cross-reactivity with the amino-terminal antibody [1]: 20%

Compound: CC(C)C[C@H](NC(=O)[C@H](CCCCN)NC(=O)[C@H](C)NC(=O)[C@@H]1CCCN1C(=O)[C@@H]1CCCN1C(=O)[C@H](CCCCN)NC(=O)[C@H](CCCCN)NC(=O)[C@H](CO)NC(=O)[C@H](CCC(=O)O)NC(=O)[C@H](CCCCN)NC(=O)[C@H](CCCNC(=N)N)NC(=O)[C@H](CCC(N)=O)NC(=O)[C@H](CCC(N)=O)NC(=O)[C@@H](NC(=O)[C@H](CCCNC(=N)N)NC(=O)[C@H](CCC(N)=O)NC(=O)[C@H](Cc1c[nH]cn1)NC(=O)[C@H](CCC(=O)O)NC(=O)[C@@H]1CCCN1C(=O)[C@H](CO)NC(=O)[C@H](CC(C)C)NC(=O)[C@H](Cc1ccccc1)NC(=O)[C@H](COC(=O)CCc1ccccc1)NC(=O)[C@H](CO)NC(=O)CN)C(C)C)C(=O)N[C@@H](CCC(N)=O)C(=O)N1CCC[C@H]1C(=O)N[C@@H](CCCNC(=N)N)C(=O)O [Compound 15, [Ser^3(3-Phenylpropionyl)]-hGhrelin]
EC50 (rat GHS-receptor (GHR-R); [2]): 1.4 nM | GH level in plasma in 15 min. after administration, M ± S.D. (IGS-SD strain rats; dose 18 nmol/kg i.v.): 1926 ± 299 ng/mL | GH level in plasma in 15 min. after administration, individual rats (Rat 1-3) (IGS-SD strain rats; dose 18 nmol/kg i.v., listed as [Ser^3(Phenylpropionyl)]-hGhrelin): 2119 ng/mL and 2078 ng/mL and 1581 ng/mL | GH-releasing activity (in words) (IGS-SD strain rats): strong GH-releasing activity

Compound: CCCCCCCCOC[C@H](NC(=O)[C@H](CO)NC(=O)CN)C(=O)N[C@@H](Cc1ccccc1)C(=O)N[C@@H](CC(C)C)C(=O)N[C@@H](CO)C(=O)N1CCC[C@H]1C(=O)N[C@@H](CCC(=O)O)C(=O)N[C@@H](Cc1c[nH]cn1)C(=O)N[C@@H](CCC(N)=O)C(=O)N[C@@H](CCCNC(=N)N)C(=O)N[C@H](C(=O)N[C@@H](CCC(N)=O)C(=O)N[C@@H](CCC(N)=O)C(=O)N[C@@H](CCCNC(=N)N)C(=O)N[C@@H](CCCCN)C(=O)N[C@@H](CCC(=O)O)C(=O)N[C@@H](CO)C(=O)N[C@@H](CCCCN)C(=O)N[C@@H](CCCCN)C(=O)N1CCC[C@H]1C(=O)N1CCC[C@H]1C(=O)N[C@@H](C)C(=O)N[C@@H](CCCCN)C(=O)N[C@@H](CC(C)C)C(=O)N[C@@H](CCC(N)=O)C(=O)N1CCC[C@H]1C(=O)N[C@@H](CCCNC(=N)N)C(=O)O)C(C)C [Compound 17, [Ser^3(Octyl)]-hGhrelin]
EC50 (rat GHS-receptor (GHR-R); [2]): 1.2 nM | GH level in plasma in 15 min. after administration, M ± S.D. (IGS-SD strain rats; dose 18 nmol/kg i.v.): 1657 ± 75 ng/mL | GH level in plasma in 15 min. after administration, individual rats (Rat 1-3) (IGS-SD strain rats; dose 18 nmol/kg i.v.): 1626 ng/mL and 1602 ng/mL and 1743 ng/mL | GH-releasing activity (in words) (IGS-SD strain rats): strong GH-releasing activity

Compound: CC(C)C[C@H](NC(=O)[C@H](CCCCN)NC(=O)[C@H](C)NC(=O)[C@@H]1CCCN1C(=O)[C@@H]1CCCN1C(=O)[C@H](CCCCN)NC(=O)[C@H](CCCCN)NC(=O)[C@H](CO)NC(=O)[C@H](CCC(=O)O)NC(=O)[C@H](CCCCN)NC(=O)[C@H](CCCNC(=N)N)NC(=O)[C@H](CCC(N)=O)NC(=O)[C@H](CCC(N)=O)NC(=O)[C@@H](NC(=O)[C@H](CCCNC(=N)N)NC(=O)[C@H](CCC(N)=O)NC(=O)[C@H](Cc1c[nH]cn1)NC(=O)[C@H](CCC(=O)O)NC(=O)[C@@H]1CCCN1C(=O)[C@H](CO)NC(=O)[C@H](CC(C)C)NC(=O)[C@H](Cc1ccccc1)NC(=O)[C@H](Cc1ccc2ccccc2c1)NC(=O)[C@H](CO)NC(=O)CN)C(C)C)C(=O)N[C@@H](CCC(N)=O)C(=O)N1CCC[C@H]1C(=O)N[C@@H](CCCNC(=N)N)C(=O)O [Compound 65, [2-^LNal^3]-hGhrelin]
EC50 (rat GHS-receptor (GHR-R); [2]): 8.2 nM | GH level in plasma in 15 min. after administration, M ± S.D. (IGS-SD strain rats; dose 100 nmol/kg i.v.): 1524 ± 147 ng/mL | GH level in plasma in 15 min. after administration, individual rats (Rat 1-3) (IGS-SD strain rats; dose 100 nmol/kg i.v.): 1637 ng/mL and 1576 ng/mL and 1357 ng/mL

Compound: CCCCCCCCOC[C@@H](NC(=O)CCCCN)C(=O)N[C@H](Cc1ccccc1)C(=O)N[C@@H](CCCCN)C(N)=O [Compound 77, [N-Aminopentanoyl, ^DSer^3(Octyl), ^DPhe^4, Lys^5]-Ghrelin (3-5)-amide]
EC50 (rat GHS-receptor (GHR-R); [2]): 1600 nM

Compound: CCCCCCCC(=O)O [n-octanoic acid, reference compound]
Ca-releasing activity (in words) (rat GHS-receptor (GHR-R); CHO-GHSR62 cells): did not show a significant Ca-releasing activity

Compound: GHRH: GH releasing hormone, expressed as GRF in FIG. 3a [reference compound]
Ca-releasing activity (in words) (rat GHS-receptor (GHR-R); CHO-GHSR62 cells): did not exhibit the Ca-releasing activity
